Legend:
Assay type in all cases: cell-based
LNCaP cells = assay: MTT cell viability assay, 96 hr exposure; conditions: for GI50: Homo sapiens
Experimental: (§1) All cell lines were obtained from American. Type Culture Collection (Rockville, Md.) and maintained in RPM 1640 media supplemented with 10% fetal bovine serum and 5% penicillin streptomycin solution. Cells were grown as a monolayer in a humidified incubator (5% CO2) at 37° C. To determine the effect of the various compounds on cell proliferation, cells were plated (2500 cells/well) in 96-well cell culture dishes (Corning, Inc. Corning, N.Y.). After a 24 hr attachment period, media was replaced with fresh media containing compounds (0.01 μM-100 μM) or vehicle (95% ethanol). The cells were then allowed to grow in the presence of the drugs for 96 hrs. After 96 hrs, relative cell viability was assessed using the MIT reagent (3-(4,5-dimethylthiazol-2-yl)-2,5-diphenyltetrazolium bromide) as is well-known in the art. […] Results were plotted using the average of each dose over all three experiments and fitted with a best-fit sigmoidal dose response variable slope curve using GraphPad Prism 4.01 (GraphPad Software, Inc.). For combination of VN/124-1 and Thapsigargin, cells were treated for 72 hrs and viability was assessed as described for single agents. Combination index (CI) was calculated as is well known in the art, and CI values less than 1 are considered synergistic.

PC-3 cells [1] = assay: MTT cell viability assay, 96 hr exposure; conditions: PC-3, 96 hrs; for GI50: Homo sapiens
Experimental: as §1

DU-145 cells = assay: MTT cell viability assay, 96 hr exposure; conditions: DU-145, 96 hrs; for GI50: Homo sapiens
Experimental: as §1

PC-3 cells [2] = assay: Absolute [Ca2+]i in individual cells, Fura-2AM; conditions: 20 μM, 24 hrs, control cells about 42.05 nM
Experimental: (§2) PC-3 Cells were loaded with either fura-2 or fluo-3 indicator by incubation with 2 μM fura-2/AM or 2 μM fluo-3/AM in RPMI 1640 medium containing 10% fetal bovine serum for >60 min at room temperature. During experiments, the coverslips were mounted in a flow chamber and superfused with oxygenated Locke solution containing (in mM): 10 glucose, 136 NaCl, 5.6 KCl, 1.2 NaH2PO4 14.3 NaHCO3, 1.2 MgCl2, and 2.2 CaCl2, pH 7.4, at room temperature (22-24° C.).
For measurement of [Ca^2+]i in individual cells, PC-3 cells were incubated on coverslips with 20 μM VN/124-1 or vehicle for 24 hrs. Cells loaded with fura-2 were placed in a perfusion chamber mounted on an inverted microscope (TE200; Nikon, Tokyo, Japan) equipped with a UV-transmitting objective (SuperFluor, 40×, N.A. 1.4, Nikon). […] Fluorescence emission was passed through a 515 nm longpass filter before capture by a cooled CCD camera (Retiga 2000R, Q-Imaging). […]
(§3) Fluo-3 Ca^2+ indicator measurements are reported as the fractional change in fluorescence intensity relative to baseline (ΔF/F0), which was determined as follows. Within a temporal sequence of fluorescence images, a region of interest (ROI) was drawn around each cell to be analyzed. The fluorescence signal from each cell was calculated as the pixel-averaged intensity within each ROI. […]

PC-3 cells [3] = assay: Cell cycle analysis by flow cytometry in synchronized cells; conditions: 20 μM
Experimental: Cells were synchronized in the G1/G0 phase by maintaining them in 0.2% FBS-containing media for 96 hrs. After starvation, media was replaced with normal growth media (10% FBS) containing vehicle (95% ethanol) or 20 μM VN/124-1 for 12, 18, and 24 hrs. At each timepoint, cells were pelleted and fixed in 70% ethanol at −20° C. for at least 24 hrs. Fixed cells were then incubated with 1 mL propidium iodide (PI) staining buffer (1 mg/ml PI, 0.1% Triton-X, and 10 μg/ml RNase A dissolved in PBS) for 1 hr at room temperature and DNA content was measured by flow cytometry analysis using a FACSort flow cytometer (Becton Dickinson, San Jose, Calif.). 15,000 events were analyzed for each sample and ModFit LT version 3.1 (Verity Software House Ind., ME) was used to analyze cell cycle distribution.

PC-3 cells [4] = assay: Co-administration of VN/124-1 and thapsigargin, MTT cell viability, combination index; conditions: 96 hrs, CI less than 1 synergistic
Experimental: All cell lines were obtained from American. Type Culture Collection (Rockville, Md.) and maintained in RPM 1640 media supplemented with 10% fetal bovine serum and 5% penicillin streptomycin solution. Cells were grown as a monolayer in a humidified incubator (5% CO2) at 37° C. To determine the effect of the various compounds on cell proliferation, cells were plated (2500 cells/well) in 96-well cell culture dishes (Corning, Inc. Corning, N.Y.). After a 24 hr attachment period, media was replaced with fresh media containing compounds (0.01 μM-100 μM) or vehicle (95% ethanol). The cells were then allowed to grow in the presence of the drugs for 96 hrs. After 96 hrs, relative cell viability was assessed using the MIT reagent (3-(4,5-dimethylthiazol-2-yl)-2,5-diphenyltetrazolium bromide) as is well-known in the art. Experiments were carried out 3 times with 6 replicates per dose per experiment (n=18). Results were plotted using the average of each dose over all three experiments and fitted with a best-fit sigmoidal dose response variable slope curve using GraphPad Prism 4.01 (GraphPad Software, Inc.). […] Combination index (CI) was calculated as is well known in the art, and CI values less than 1 are considered synergistic.

[5] = test system: eIF2α, p-eIF2α, cyclin D1, gp78/BiP, CHOP; assay: Western blot of ERSR related proteins; conditions: 20 μM
Experimental: Cells were treated with VN/124-1, thapsigargin or vehicle for 6 and 24 hrs. Protein was isolated, subjected to SDS-PAGE, transferred and imaged as is known in the art. Primary antibodies against eIF2α, p-eIF2α, cyclin D1, gp78/BiP, and β-actin were purchased from Cell Signaling (Danvers, Mass.), Anti-CHOP antibody was purchased from Sigma Aldrich (St Louis, Mo.). Quantitation of relative protein expression was determined via densitometry using the software ImageQuant 5.0 (Molecular Dynamics) with each protein normalized to its respective loading control. Results represent the average of at least 3 independent experiments, with representative blots shown.

PC-3 cells [6] = assay: Ca2+ transients in individual cells, Fluo-3AM; conditions: 20 μM; for transient rise in [Ca2+]i, mean peak ΔF/F0: Fluo-3AM
Experimental: as §2
For measurement of [Ca^2+]i in individual cells, PC-3 cells were incubated on coverslips with 20 μM VN/124-1 or vehicle for 24 hrs. Cells loaded with fura-2 were placed in a perfusion chamber mounted on an inverted microscope (TE200; Nikon, Tokyo, Japan) equipped with a UV-transmitting objective (SuperFluor, 40×, N.A. 1.4, Nikon). Pura-2 was alternately excited by 340 nm and 380 nm light from monochrometers (Deltascan Illumination System, Photonic Technology International (PTI), South Brunswick, N.J.) and fura-2 emission was passed through a 515 nm longpass tiller before detection by a cooled CCD camera (Retiga 2000R, Q-Imaging, Burnaby, Canada). For measurement of Cat^2+ transients in individual cells, coverslips with fluo-3 loaded cells were excited by the output of a 100 W mercury are lamp that passed through a 480 nm bandpass filter (30 nm bandwidth). Fluorescence emission was passed through a 515 nm longpass filter before capture by a cooled CCD camera (Retiga 2000R, Q-Imaging). Image acquisition was performed with QCapture Pro (Q-Imaging) and analysis was performed with ImageJ (U.S. National Institutes of Health Bethesda, Md. USA).
as §3

PC-3 cells [7] = assay: Real-time PCR (qRT-PCR) of stress response and cell cycle related genes; conditions: 20 μM, 24 hr
Experimental: Cells were treated, lysed and RNA collected and quantified using the same method outlined above. Cells were dosed independently on 3 separate days (n=3). 1 μg of total RNA was converted to cDNA using ReactionReady™ First Strand cDNA Synthesis kit (SuperArray Bioscience Corp.; Frederick, Md.) following manufacturer's protocol. 50 ng of template cDNA was then used in subsequent real-time PCR (qRT-PCR) reactions. Template was combined with target gene specific or β-actin control RT^2 PCR Primer Sets, RT^2 Real-Time™ SYBR Green/Rox Master Mix (SuperArray Bioscience Corp.), and ddH2O for a final reaction volume of 25 μL and run on a 7900HT Fast Real-Time PCR system (Applied Biosystems; Foster City, Calif.) following manufacturer's protocol. Fold changes were calculated using the ΔΔCt method as recommended by the manufacture's protocol.

PC-3 cells [8] = assay: Microarray global gene expression (GeneChip Human Genome Focus Array, DAVID ontologies); conditions: 20 μM, 24 hrs
Experimental: To perform the microarray experiments, PC-3 cells were treated with (95% ethanol) or 20 μM of VN/124-1. After 24 hr exposure to the agent, cells were pelleted and lysed using Qiagen RLT (Qiagen Inc.; Valencia, Calif.) buffer containing 1% β-mercaptoethanol. Total RNA was isolated using the Qiagen RNeasy-Mini Kit following manufacturer's protocol. Quantity and purity were assessed by absorption at 260 nm and 280 nm. RNA integrity was assessed using an Agilent Bioanalyzer (Agilent Technologies; Santa Clara, Calif.). Experiments were carried out in duplicate, with triplicate samples (dosed independently on 3 different days) from each experiment pooled for analysis on a single chip.
Samples were hybridized to a GeneChip® Human Genome Focus Array (Affymetrix Inc., U.S.A.) and analyzed using an Affymetrix Genechip Scanner 3000 according to manufacturer's protocol. Gene ontologies were identified using the online Database for Annotation, Visualization, and integrated Discovery (DAVID) provided by the National Institute of Allergy and Infectious Diseases and the National Institute of Health. […] Stringent criteria of a minimum EASE/P-Value threshold of 0.001 and a gene count threshold of 5 were used to identify altered gene ontologies.

SMILES	GI90 (LNCaP cells) [µM]	GI90 (PC-3 cells [1]) [µM]	GI90 (DU-145 cells) [µM]	GI50 (LNCaP cells) [µM]	GI50 (PC-3 cells [1]) [µM]	GI50 (DU-145 cells) [µM]	further results
C[C@]12CCC(=O)C=C1CCC1C2CC[C@]2(C)C(n3cnc4ccccc43)=CCC12 (stereo partly shown) [VN/125-1]	13.46	8.07	15.53				
C[C@]12CC[C@H](O)CC1=CCC1C2CC[C@]2(C)C(n3ccnc3)=CCC12 (stereo partly shown) [VN/85-1]	36.49	30.41	31.62	2.47	1.86	5.31	
C[C@]12CC[C@H](O)CC1=CCC1C2CC[C@]2(C)C(n3cncn3)=CCC12 (stereo partly shown) [VN/63-1]	>100	>100	>100	1.05	2.91	11	
C[C@]12CC[C@H](O)CC1=CC[C@@H]1[C@@H]2CC[C@]2(C)C(c3cccnc3)=CC[C@@H]12 [Abiraterone, 17-(3-pyridyl)androsta-5,16-dien-3β-ol, reference compound]				1.41	9.32	14.7	
C[C@]12CC[C@H](O)CC1=CC[C@@H]1[C@@H]2CC[C@]2(C)C(n3cnc4ccccc43)=CC[C@@H]12 [VN/124-1]	31.99	18.62	15.95	3.15	7.82	7.55	absolute [Ca2+]i, mean (PC-3 cells [2]): about 66.21 nM; amount of cells in G1/G0 (PC-3 cells [3]; 18 and 24 hrs, synchronized cells): significant increase; exit from G1 phase of the cell cycle (PC-3 cells [3]; cells synchronized by serum starvation): prevented the exit from G1 phase; Combination index (CI) (PC-3 cells [4]; 5 μM VN/124-1 plus 10 nM thapsigargin): 0.40; Combination index (CI) (PC-3 cells [4]; 10 μM VN/124-1 plus 10 nM thapsigargin): 0.58; Combination index (CI) (PC-3 cells [4]; 20 μM VN/124-1 plus 10 nM thapsigargin): 0.77; CHOP protein level [5]: up-regulation; expression of gp78/BiP protein [5]: significantly induced; phosphorylation of eIF2α ([5]; 6 and 24 hrs): induced the phosphorylation; cyclin D1 protein ([5]; 24 hrs): down-regulation; transient rise in [Ca2+]i, mean peak ΔF/F0 (PC-3 cells [6]; extracellular calcium removed): 0.967; transient rise in [Ca2+]i, mean peak ΔF/F0 (PC-3 cells [6]; presence of extracellular calcium): 0.613; transient rise in [Ca2+]i after depletion of ER calcium stores (PC-3 cells [6]; pretreatment with SERCA inhibitor cyclopiazonic acid (CPA)): completely abolished; activating transcription factor 4 (ATF4) gene expression (PC-3 cells [7]; microarray verified by qRT-PCR): up-regulated; asparagines synthetase (ASKS) gene expression (PC-3 cells [7]; microarray verified by qRT-PCR): up-regulated; CHOP gene expression (PC-3 cells [7]; qRT-PCR): strongly up-regulated; cyclin D1 mRNA levels (PC-3 cells [7]; qRT-PCR): not affected; cyclin E2 mRNA levels (PC-3 cells [7]; qRT-PCR): significantly reduced; S100P calcium binding protein gene expression (PC-3 cells [8]): most highly up-regulated
